According to patent US12521419B2, “Use of anti-aging glycopeptides to enhance pancreatic cell health, survival and improve transplant outcome” (Protokinetix Inc., priority 2014, dated 2026):

Columns and labels:
human islets [1] = assay: Glucose-stimulated insulin secretion (GSIS) perifusion assay; type: cell-based; conditions: 24 h ± AAGP then 24 hr tacrolimus 10 ng/mL; Tac− 158.8
Experimental: Islet secretory function is assessed by monitoring in vitro insulin secretory profile during continuous glucose stimulation, as described by Cabrera et al Cell transplantation 2008;16(10):1039-1048. This in vitro perifusion assay is a modality of continuous Glucose-Stimulated Insulin Secretion (GSIS) test to stress islets in alternating normoglycemic and hyperglycemic environment to model physiological islet response. Supernatants from the perifusion assay are collected and insulin levels are determined using a commercially available ELISA kit (Insulin ELISA kit. Mercodia Inc. Pittsburgh, PA, USA). Results are expressed as fold-change of insulin secretion compared to the low (2.8 mMol) glucose stimulation baseline, normalized for 100 IEQ.

human islets [2] = assay: Static GSIS assay (stimulation index); type: cell-based; conditions: day 3, tacrolimus present
From the text: Similar experimental conditions were recreated (human islets cultured with and without AAGP™ and exposed to tacrolimus) and aliquots of approximately 100 IEQ were collected on day 3 for each corresponding group to undergo s-GSIS assay and simultaneous intracellular insulin content. Islets were then extensively washed to remove tacrolimus and left in culture for 4 more days, when sampling and comparative testing was repeated on day 7.

[3] = system: human islets transplanted under the kidney capsule; assay: Proinflammatory cytokines and chemokines in homogenized graft 24 h post-transplant; type: in vivo, immunodeficient mice; conditions: 24 h after transplant, 1,000 IEQ, islets cultured with tacrolimus ± AAGP, n=3
Experimental: After 24 hr exposure to tacrolimus, samples from culture media of all groups are frozen and relevant cytokines and chemokines (IFN-γ, IL-1β, IL-6, IL-10, IL-12, Keratinocyte-derived Chemokine (KC), and TNF-α) are measured using a Multi-Spot Human ProInflammatory 7-Plex Ultra-Sensitive kit (Meso Scale Discovery®, Gaithersburg, MD, USA), analyzed on the SECTOR™ Imager (Meso Scale Discovery®, Gaithersburg, MD, USA). Results are expressed as absolute values (pg/mL), and CMRL culture media alone is used as a control for comparison.
Eight to 12 week immunodeficient mice (B6.129S7-Rag1^tm1Mom) are obtained from the Jackson Laboratory (Bar Harbor, ME, USA) and housed under specific pathogen-free conditions with access to food and water ad libitum. Animals are cared for according to the guidelines of the Canadian Council on Animal Care, and ethical approval is obtained from the animal welfare committee at the University of Alberta.
Animals are considered diabetic after two consecutive blood glucose measurements are documented≥18 mmol/L.
Ten animals per group received approximately 1,000 IEQ human islets transplanted under the capsule of the left kidney as described previously (19).
Three mice per group underwent nephrectomy and are euthanized 24 hr post-transplant to perform acute determination of proinflammatory cytokines, cleaved capase-3 and TUNEL in the graft area. In all cases the islet graft is excised from the kidney, weighed, flash frozen in liquid nitrogen and stored at −80° C. Tissue samples are subsequently lysed using 1 ml of lysis buffer (0.15 M NaCl, 1 mM Tris-HCL, 0.1% SDS, 0.1% Triton X-100, 20 mM Sodium deoxycholate, 5 mM EDTA) per 200 mg of tissue. Lysates are then homogenized (PowerGen, Fisher Scientific, ON, Canada) on ice for 30 sec×2 replications, and sonicated (VirSonic, VirTis, NY, USA) with 10 quick pulses while on ice. Cellular debris is pelleted by centrifugation at 14,000 rpm for 10 min at 4° C. and the resulting supernatant is collected and placed in a microcentrifuge tube containing 10 μl of a protease inhibitor cocktail (Sigma-Aldrich Canada Co., Oakville, ON, Canada) per 1 ml of lysate (1:100).
Graft samples are assayed (using the corresponding mouse kit) for pro-inflammatory cytokines/chemokines, caspase-3 and TUNEL staining, as previously described. All determinations are adjusted per gram of tissue.
Further in vivo testing is performed to complement our in vitro findings. Using the same study groups (Tac−, Tac+ and Tac+AAGP™) minimal mass (1,000 IEQ) islet transplants are performed in chemically-induced diabetic immunodeficient mice (n=10 per group). […]

mouse splenocytes = assay: Allogeneic mixed lymphocyte reaction, T cell proliferation by CFSE staining; type: cell-based; conditions: vs IgG control, n=4
From the text: The assay measures T cell proliferative response by levels of CFSE staining.

human islets [4] = assay: Extracellular ROS in culture media, Acridan Lumigen PS-3 assay; type: cell-based; conditions: media 24 hr after tacrolimus exposure, ± AAGP
Experimental: Frozen samples from all groups are utilized to determine reactive oxygen species (ROS) in the culture media, using the Acridan Lumigen™ PS-3 assay (Amershan ECL Plus kit, Fisher Scientific Inc. Ottawa, ON, Canada) (18). In this assay Acridan Lumigen™ PS-3 is excited by reactive oxygen and nitrogen species (RNS) in the presence of hydrogen peroxide, producing chemiluminescense at 430 nm. Media samples are flash-frozen with liquid nitrogen and stored until the assay is performed. CMRL culture media alone is used as a control, and results are expressed as fold-change increase compared to the control media.

human islets [5] = assay: Viability by fluorescent membrane integrity assay (syto green/ethidium bromide); type: cell-based; conditions: 24 h ± AAGP then 24 hr tacrolimus 10 ng/mL
Experimental: After 24 hr of culture, islets are assessed for recovery, viability and function. Recovery rate is calculated as the percentage of surviving islets after 24 hr culture in comparison to the initial count for each condition. Viability is assessed using a fluorescent membrane integrity assay with counter-stains syto green/ethidium bromide (Cedarlane Laboratories, Burlington, ON, and Sigma-Aldrich, ON) (Islet isolation for clinical transplantation. In: Shahidul. M, (ed). The islets of Langerhans. New York: Springer, 2010; Ranuncoli A, et al. Cell transplantation 2000; 9(3):409-414; Ricordi C. et al. Acta diabetologica latina 1990; 27(3):185-195; and Barnett M J et al. Cell transplantation 2004; 13(5):481-488).

C=CC[C@@H]1/C=C(\C)C[C@H](C)C[C@H](OC)[C@H]2O[C@@](O)(C(=O)C(=O)N3CCCC[C@H]3C(=O)O[C@H](/C(C)=C/[C@@H]3CC[C@@H](O)[C@H](OC)C3)[C@H](C)[C@@H](O)CC1=O)[C@H](C)C[C@@H]2OC.O [Tac+, tacrolimus]
GSIS perifusion AUC (human islets [1]): 8.22 | stimulation index (s-GSIS) (human islets [2]): 1.4 | IL-1β level in graft [3]: 17.81 pg/mL/g-tissue | IL-6 level in graft [3]: 147.8 pg/mL/g-tissue | KC (keratinocyte chemokine) level in graft [3]: 9.79 pg/mL/g-tissue | TNF-α level in graft [3]: 1.63 pg/mL/g-tissue | T cell proliferation (CD8+ and CD4+) (mouse splenocytes): significantly decreased | extracellular ROS (fold-increase vs control media) (human islets [4]): substantial increase in ROS | cell viability by membrane integrity stain (human islets [5]): no difference in cell viability
